From US4017488A, “Process for preparing 7β-acylamino-7α-alkoxycephalosporins” (Sankyo Company Limited, priority 1974, dated 1977)
≈ marks a conversion by molar mass, not a printed value.

What was measured:
Assay type in all cases: cell-based
[1] = system: broad range of disease germs; test: Antimicrobial activities (general statement); conditions: statement in words
[2] = system: Staphylococcus aureus 209p; test: Minimal inhibitory concentration, I A; conditions: read-out: Minimal inhibitory concentrations
Description: (§1) Minimal inhibitory concentrations of various microorganisms mcg/ml
*I A: Staphylococcus aureus 209p

[3] = system: Staphylococcus aureus (CP and PC resistant); test: Minimal inhibitory concentration, I B; conditions: read-out: Minimal inhibitory concentrations
Description: as §1
I B: Staphylococcus aureus (CP and PC resistant)

[4] = system: Shigella flexneri Komagome; test: Minimal inhibitory concentration, III; conditions: read-out: Minimal inhibitory concentrations
Description: as §1
III: Shigella flexneri Komagome

[5] = system: Klebsiella neumoniae 846 (CER resistant); test: Minimal inhibitory concentration, IV B; conditions: read-out: Minimal inhibitory concentrations
Description: as §1
IV B: Klebsiella neumoniae 846 (CER resistant)

CO[C@@]1(NC(=O)CSc2nnc[nH]2)C(=O)N2C(C(=O)O)=C(COC(N)=O)CS[C@@H]21 [7β-(1,2,4-triazol-4H-3-yl)thioacetamido-7α-methoxy-3-carbamoyloxymethyl-3-cephem-4-carboxylic acid]
anti-bacterial / antimicrobial activities [1]: excellent anti-bacterial activities against a broad range of disease germs

CO[C@@]1(NC(=O)CSc2nncs2)C(=O)N2C(C(=O)O)=C(COC(N)=O)CS[C@@H]21 [7β-(1,3,4-thiadiazol-2-yl)thioacetamido-7α-methoxy-3-carbamoyloxymethyl-3-cephem-4-carboxylic acid]
anti-bacterial / antimicrobial activities [1]: excellent anti-bacterial activities against a broad range of disease germs

CO[C@@]1(NC(=O)CSc2ncc[nH]2)C(=O)N2C(C(=O)O)=C(COC(N)=O)CS[C@@H]21 [7β-(imidazol-2-yl)thioacetamido-7α-methoxy-3-carbamoyloxymethyl-3-cephem-4-carboxylic acid]
anti-bacterial / antimicrobial activities [1]: excellent anti-bacterial activities against a broad range of disease germs

CO[C@@]1(NC(=O)CSCN=[N+]=[N-])C(=O)N2C(C(=O)O)=C(COC(C)=O)CS[C@@H]21 [7β-azidomethylthioacetamido-7α-methoxy-3-acetoxymethyl-3-cephem-4-carboxylic acid]
anti-bacterial / antimicrobial activities [1]: excellent anti-bacterial activities against a broad range of disease germs

CO[C@@]1(NC(=O)CSc2ncc[nH]2)C(=O)N2C(C(=O)O)=C(CSc3nnnn3C)CS[C@@H]21 [7β-(imidazol-2-yl)thioacetamido-7α-methoxy-3-(1-methyl-1H-tetrazol-5-yl)thiomethyl-3-cephem-4-carboxylic acid]
anti-bacterial / antimicrobial activities [1]: excellent anti-bacterial activities against a broad range of disease germs

CO[C@@]1(NC(=O)CSCC#N)C(=O)N2C(C(=O)O)=C(COC(N)=O)CS[C@@H]21 [7β-cyanomethylthioacetamido-7α-methoxy-3-carbamoyloxymethyl-3-cephem-4-carboxylic acid]
anti-bacterial / antimicrobial activities [1]: excellent anti-bacterial activities against a broad range of disease germs

CO[C@@]1(NC(=O)COc2ccon2)C(=O)N2C(C(=O)O)=C(COC(C)=O)CS[C@@H]21 [7β-(3-isoxazolyloxy)acetamido-7α-methoxy-3-acetoxymethyl-3-cephem-4-carboxylic acid]
anti-bacterial / antimicrobial activities [1]: excellent anti-bacterial activities against a broad range of disease germs

CO[C@@]1(NC(=O)COc2ccon2)C(=O)N2C(C(=O)O)=C(CSc3nnnn3C)CS[C@@H]21 [7β-(3-isoxazolyloxy)acetamido-7α-methoxy-3-(1-methyl-1H-tetrazol-5-yl)thiomethyl-3-cephem-4-carboxylic acid]
MIC [2]: 0.2 µg/mL (≈ 0.414 µM)
MIC [3]: 0.8 µg/mL (≈ 1.65 µM)
MIC [4]: 3.1 µg/mL (≈ 6.41 µM)
MIC [5]: > 400 µg/mL
anti-bacterial / antimicrobial activities [1]: excellent anti-bacterial activities against a broad range of disease germs

CO[C@@]1(NC(=O)CSc2ccon2)C(=O)N2C(C(=O)O)=C(COC(C)=O)CS[C@@H]21 [7β-(3-isoxazolyl)thioacetamido-7α-methoxy-3-acetoxymethyl-3-cephem 4-carboxylic acid]
anti-bacterial / antimicrobial activities [1]: excellent anti-bacterial activities against a broad range of disease germs

CO[C@@]1(NC(=O)CSc2nnc(C)s2)C(=O)N2C(C(=O)O)=C(CSc3nnnn3C)CS[C@@H]21 [7β-(5-methyl-1,3,4-thiadiazol-2-yl)thioacetamido-7α-methoxy-3-(1-methyl-1H-tetrazol-5-yl)thiomethyl-3-cephem-4-carboxylic acid]
anti-bacterial / antimicrobial activities [1]: excellent anti-bacterial activities against a broad range of disease germs

CO[C@@]1(NC(=O)CSc2nncs2)C(=O)N2C(C(=O)O)=C(COC(C)=O)CS[C@@H]21 [7β-(1,3,4-thiadiazol-2-yl)thioacetamido-7α-methoxy-3-acetoxymethyl-3-cephem-4-carboxylic acid]
anti-bacterial / antimicrobial activities [1]: excellent anti-bacterial activities against a broad range of disease germs

C#CCSCC(=O)N[C@]1(OC)C(=O)N2C(C(=O)O)=C(CSc3nnnn3C)CS[C@@H]21 [7β-propargylthioacetamido-7α-methoxy-3-(1-methyl-1H-tetrazol-5-yl)thiomethyl-3-cephem-4-carboxylic acid]
anti-bacterial / antimicrobial activities [1]: excellent anti-bacterial activities against a broad range of disease germs

CO[C@@]1(NC(=O)CSCC#N)C(=O)N2C(C(=O)O)=C(CSc3nnnn3C)CS[C@@H]21 [7β-cyanomethylthioacetamido-7α-methoxy-3-(1-methyl-1H-tetrazol-5-yl)thiomethyl-3-cephem-4-carboxylic acid]
anti-bacterial / antimicrobial activities [1]: excellent anti-bacterial activities against a broad range of disease germs

CO[C@@]1(NC(=O)CSCC#N)C(=O)N2C(C(=O)O)=C(COC(C)=O)CS[C@@H]21 [7β-cyanomethylthioacetamido-7α-methoxy-3-acetoxymethyl-3-cephem-4-carboxylic acid]
anti-bacterial / antimicrobial activities [1]: excellent anti-bacterial activities against a broad range of disease germs

C#CCSCC(=O)N[C@]1(OC)C(=O)N2C(C(=O)O)=C(COC(C)=O)CS[C@@H]21 [7β-propargylthioacetamido-7α-methoxy-3-acetoxymethyl-3-cephem-4-carboxylic acid]
anti-bacterial / antimicrobial activities [1]: excellent anti-bacterial activities against a broad range of disease germs

C#CCSCC(=O)N[C@]1(OC)C(=O)N2C(C(=O)O)=C(COC(N)=O)CS[C@@H]21 [7β-propargylthioacetamido-7α-methoxy-3-carbamoyloxymethyl-3-cephem-4-carboxylic acid]
anti-bacterial / antimicrobial activities [1]: excellent anti-bacterial activities against a broad range of disease germs

CO[C@@]1(NC(=O)CSc2nnc(C)s2)C(=O)N2C(C(=O)O)=C(COC(N)=O)CS[C@@H]21 [7β-(5-methyl-1,3,4-thiadiazol-2-yl)thioacetamido-7α-methoxy-3-carbamoyloxymethyl-3-cephem-4-carboxylic acid]
anti-bacterial / antimicrobial activities [1]: excellent anti-bacterial activities against a broad range of disease germs

CO[C@@]1(NC(=O)CSc2ncc[nH]2)C(=O)N2C(C(=O)O)=C(COC(C)=O)CS[C@@H]21 [7β-(imidazol-2-yl)thioacetamido-7α-methoxy-3-acetoxymethyl-3-cephem-4-carboxylic acid]
anti-bacterial / antimicrobial activities [1]: excellent anti-bacterial activities against a broad range of disease germs

CO[C@@]1(NC(=O)CSc2nncs2)C(=O)N2C(C(=O)O)=C(CSc3nnnn3C)CS[C@@H]21 [7β-(1,3,4-thiadiazol-2-yl)thioacetamido-7α-methoxy-3-(1-methyl-1H-tetrazol-5-yl)thiomethyl-3-cephem-4-carboxylic acid]
anti-bacterial / antimicrobial activities [1]: excellent anti-bacterial activities against a broad range of disease germs
